Values of other authors, collected in patent publication US20200170950A1, “COMPOSITIONS COMPRISING A CANNABINOID OR A CANNABIS-DERIVED COMPOUND, METHODS OF MAKING AND USE” (priority 2018, published 2020).

Tests used:
5-HT1A receptor = target: T1, 5-HT1A receptor (Homo sapiens, UniProt P08908)
T1 sequence (P08908 1-422): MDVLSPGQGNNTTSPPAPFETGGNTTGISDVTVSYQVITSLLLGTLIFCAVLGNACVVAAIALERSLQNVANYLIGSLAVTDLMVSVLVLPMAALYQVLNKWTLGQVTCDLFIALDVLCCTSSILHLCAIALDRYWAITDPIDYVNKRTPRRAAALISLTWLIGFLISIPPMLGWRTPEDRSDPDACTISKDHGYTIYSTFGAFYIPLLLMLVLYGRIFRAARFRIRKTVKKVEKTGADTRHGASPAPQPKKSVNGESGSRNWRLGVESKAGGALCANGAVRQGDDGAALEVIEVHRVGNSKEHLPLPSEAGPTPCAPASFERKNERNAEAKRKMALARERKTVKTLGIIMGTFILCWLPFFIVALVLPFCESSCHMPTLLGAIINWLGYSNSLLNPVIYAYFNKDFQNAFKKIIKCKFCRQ

CB1 receptor = CB1 receptor (Homo sapiens, UniProt P21554)
Sequence of CB1 receptor (P21554 whole entry): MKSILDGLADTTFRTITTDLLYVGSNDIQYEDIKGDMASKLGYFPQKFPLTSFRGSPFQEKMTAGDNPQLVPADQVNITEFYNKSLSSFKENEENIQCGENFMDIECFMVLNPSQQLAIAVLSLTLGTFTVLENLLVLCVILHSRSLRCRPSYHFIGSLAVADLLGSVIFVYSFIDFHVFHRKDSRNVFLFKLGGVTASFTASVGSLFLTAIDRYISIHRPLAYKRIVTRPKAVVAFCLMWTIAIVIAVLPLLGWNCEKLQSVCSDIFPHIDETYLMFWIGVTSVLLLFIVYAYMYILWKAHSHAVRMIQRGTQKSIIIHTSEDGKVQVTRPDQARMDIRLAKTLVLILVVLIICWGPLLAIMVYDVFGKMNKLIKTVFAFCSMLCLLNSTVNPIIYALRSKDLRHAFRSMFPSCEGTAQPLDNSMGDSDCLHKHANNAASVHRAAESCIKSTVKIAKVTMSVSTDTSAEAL

CB2 receptor = CB2 receptor (Homo sapiens, UniProt P34972)
Sequence of CB2 receptor (P34972 whole entry): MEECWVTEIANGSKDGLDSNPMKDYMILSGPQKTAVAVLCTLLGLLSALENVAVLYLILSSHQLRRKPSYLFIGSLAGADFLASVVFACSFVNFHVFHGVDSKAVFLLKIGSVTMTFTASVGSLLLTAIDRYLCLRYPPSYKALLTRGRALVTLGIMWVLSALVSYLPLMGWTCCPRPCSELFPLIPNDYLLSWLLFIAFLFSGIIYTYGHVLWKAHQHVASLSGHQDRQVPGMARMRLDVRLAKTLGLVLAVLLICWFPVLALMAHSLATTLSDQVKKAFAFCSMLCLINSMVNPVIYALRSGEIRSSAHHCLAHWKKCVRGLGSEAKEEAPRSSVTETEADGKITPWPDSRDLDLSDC

Compound	affinity, α2-adrenergic receptor agonist (α2-adrenergic receptor)	affinity, 5-HT1A receptor antagonist (5-HT1A receptor)	activity/affinity at CB1 receptor (CB1 receptor)	activity/affinity at CB2 receptor (CB2 receptor)
CCCCCc1cc(O)c(C/C=C(\C)CCC=C(C)C)c(O)c1 [CBG, Cannabigerol]	high affinity	moderate affinity	low affinity	antagonist
CCCCCc1cc(O)c2c(c1)OC(C)(C)c1ccc(C)cc1-2 [CBN, Cannabinol]			partial agonist	higher affinity
